Test results from patent publication US7790896B2, “RNA-selective probes for live cell imaging of nuclear structure and function” (New York University, priority 2006, dated 2010).

Columns and labels:
3T3 cells = test: Phototoxicity test, MTS assay of irradiated cells; format: cell-based, mouse; settings: dye 5 μM (Hoechst 1 μM), irradiated 5 minutes, 24 hours incubation
Method: Dye DMSO stock solutions were diluted by fresh medium into working concentration (5 μM). Cells were cultured in 96-well plate for 12 hours before experiments. The cell medium was exchanged with dye medium solutions. Cells were then incubated in at 37° C., in 5% CO2 for 25 minutes before being irradiated by fluorescent light using the appropriate working filter (FITC for E36 and E144; Cy3 for F22) for 5 minutes. The plates were then incubated at 37° C. in 5% CO2 The cell viability was measured by MTS assay after 5 and 24 hours following the cytotoxicity measurement procedure. Duplicated experiments have been tested.
Phototoxicity is also an important factor in evaluating applicability of new fluorescent probes for live cell imaging. […] Nevertheless, it is desirable for the new imaging probes to be as non-phototoxic as possible. To investigate the phototoxicity of the present RNA-selective compounds, cellular viability of irradiated cells using MTS assay was assessed. Cells were incubated with dyes (E36, E144, and F22) in their working concentration (5 μM), and then irradiated with the appropriate filters using the fluorescent microscope (FITC for E36 and E144; Cy3 for F22). While light exposures used for imaging experiments are generally a few seconds long at most, cells were irradiated for 5 minutes for prolonged toxicity measurement. […]

[1] = Fluorescence spectrum in TE buffer of dyes selected from live cell imaging; format: physicochemical; settings: dye 10 μM in TE buffer
Method: (§1) The fluorescence spectra data in the primary screening and selected dyes titration assay study was obtained by Gemini XS plate reader. RNA solution was prepared right before the assay experiments to avoid possible degradation and contamination. In the primary screening, 1 mg/mL RNA (type VI from torula yeast) buffer solution was used. Point scans were carried out first using five Ex/Em point sets ([…], 400/500, 450/550, 500/600, 550/650 nm). Spectra scans were then carried out for the selected dyes. Excitation wavelengths were set at 350 nm, 400 nm, 450 nm, 500 nm, and 550 nm and the emission wavelengths were scanned. RNA (16S- and 23S-ribosomal from E. coli) and DNA (salmon testes) titration experiments and quantum yield/extinction coefficient determination for the three best dyes were carried out by the plate reader as well. Excitation λmax obtained from F-2500 Hitachi Fluorophotometer was used. Absorbance wavelength was determined by SpectraMax Plus^384 absorbance plate reader. […] was chosen as standard and 480 nm was used as excitation wavelength in the scanning for quantum yield determination.

[2] = system: 3T3 fibroblast cells, 3T3-L1 adipocyte cells, Hela cells and A549 human lung carcinoma cells; test: Secondary screening: live cell nuclear imaging properties in four cell lines; format: cell-based, mouse; settings: dye 25 μM
Method: (§2) All cell staining imaging followed the same procedure. Generally, dyes in dry state were first dissolved in DMSO to obtain the stock solution. The stock solutions were then added directly to the cell culture wells to reach the desired concentration. Total DMSO was lower than 0.1%. After adding dyes, cells were incubated at 37° C. in 5% CO2 for 25 minutes. The medium was then removed and cells were rinsed with fresh medium twice. The cells were then imaged at ambient temperature in the medium. Exposure time was kept less than 5 seconds and adjusted to each dye.
The selected compounds from both primary screens (total 88) were resynthesized in large scale and purified. The compounds' live cell nuclear imaging properties were then tested by four cell lines, including two mouse cell lines: 3T3 fibroblast cells and 3T3-L1 adipocyte cells; and two human cancer cell lines: Hela cells and A549 human lung carcinoma cells. Herein, the final dye concentration in each test was decreased to 25 μM and all the experiments were repeated to establish reproducibility. […] Each of the three dyes contained at least one high affinity nucleic acid functional group (Trotta et al., “Solution Structure of DAPI Selectively Bound in the Minor Groove of a DNA T-T Mismatch-Containing Site: NMR and Molecular Dynamics Studies,” Nucleic Acids Res. 26:4706-4713 (1998); Loontiens et al., “Binding Characteristics of Hoechst 33258 with Calf Thymus DNA, Poly[d(A-T)], and d(CCGGAATTCCGG): Multiple Stoichiometries and Determination of Tight Binding with a Wide Spectrum of Site Affinities,” Biochem. 29:9029-9039 (1990); Zipper et al., “Investigations on DNA Intercalation and Surface Binding by SYBR Green I, Its Structure Determination and Methodological Implications,” Nucleic Acid Res. 32:E103 (2004); Glazer et al., “Stable Dye-DNA Intercalation Complexes as Reagents for High-Sensitivity Fluorescence Detection,” Nature 359:859-861 (1992), which are hereby incorporated by reference in their entirety) in building block II such as the terminal secondary amine for F22 and F112, the trimethoxy for E 144, and the indole for E36.

[3] = Fluorescent properties of free dye solution; format: physicochemical; settings: TE buffer pH 7.5, dye 5 μM
Method: as §1, with “determination. […] Generally, the λmax (nm) of emission was determined by scanning a fixed excitation first, and the μmax (nm) of excitation was determined by scanning emission spectrum with a fixed μem (nm). The detailed fluorescent properties of three selected dyes including; excitation/emission μmax, the quantum yield and extinction coefficient of both free dye solution and dye-RNA solution were assessed (Table 5).” for “determination.”

[4] = system: RNA (16S- and 23S-ribosomal from E. coli); test: Fluorescent properties of dye-RNA solution; format: binding; settings: TE buffer pH 7.5, dye 5 μM, RNA 200 μg/mL
Method: as §1, with “determination. […] Generally, the λmax (nm) of emission was determined by scanning a fixed excitation first, and the μmax (nm) of excitation was determined by scanning emission spectrum with a fixed μem (nm). The detailed fluorescent properties of three selected dyes including; excitation/emission μmax, the quantum yield and extinction coefficient of both free dye solution and dye-RNA solution were assessed (Table 5).” for “determination.”

[5] = system: Hela, A549, 3T3, and 3T3-L1; test: Optimization of working concentration and imaging properties, live cell staining; format: cell-based, human, mouse; settings: 20, 10, 5 and 1 μM tested in four cell lines
Method: as §2
In fluorescence microscopic imaging studies, it is always desirable to use as little dye as possible to stain organelles in order to maximize specificity and minimize dye toxicity and cell death. To determine the lowest working concentration of each dye, four different concentrations (20 μM, 10 μM, 5 μM, and 1 μM) were tested in four cell lines (Hela, A549, 3T3, and 3T3-L1). Dyes E36, E144, and F112 were imaged using FITC channel, and F22 was imaged using Cy3 channel. Generally, a quality fluorescence signal for each dye was produced using a concentration of 5 μM for E36, E144, and F22 and 10 μM for F112 (Table 5). It was interesting to observe that compound F22 was brighter in 3T3 cells, and a concentration of 1 μM was sufficient for a clear image (FIG. 4). […] Little photobleaching and no obvious cell morphology or viability changes were observed during the tests.

[6] = system: Fixed-permeabilized Hela cells; test: DNase and RNase digest test; format: cell-based, human; settings: dye 50 μM, 2 hours
Method: Cells were first fixed using cold (−4° C.) pure methanol for 1 minute at ambient temperature. The cell membrane was then permeabilized by immersion in 1% Triton X-100 for 2 minutes. After rinsing with PBS twice, 100 μL of 50 μM dye PBS solution was added to three adjacent wells. Cells were then incubated in this dye PBS solution for 15 minutes in ambient temperature before being rinsed with clean PBS twice. 100 μL clean PBS (as control experiment), 30 μg/mL DNase (Sigma), or 25 μg/mL DNase-Free RNase (GE) was added to the three adjacent wells and incubated at 37° C. in 5% CO2 for 2 hours. Cells were rinsed with clean PBS twice before imaging. For each dye test, the fluorescent images were obtained using equal exposure time for control, DNase and RNase experiments. DAPI (10 μM) in PBS and SYTO®RNASelect (5 μM) in PBS solution were used for dual staining experiments. Duplicate experiments have been tested.
To further confirm that the compounds selectively bind RNA, a deoxyribonuclease (DNase) and ribonuclease (RNase) digest test was performed. In DNase digest, only the DNAs in the cell would be hydrolyzed. By contrast, in RNase digest, only RNAs would be hydrolyzed. Fixed-permeabilized Hela cells were used in this experiment and DAPI and SYTO®RNASelect were used as control dyes (FIG. 6). […] Still, its higher RNA-selective binding in live cell might be due to the complicated in vivo live cell environment, which may preferably direct this dye to nucleoli.

Structure (SMILES)	Phototoxicity (3T3 cells)	SPECTRUM EM [1] [nm]	SPECTRUM EX [1] [nm]	Live cell nuclear imaging properties (basis of selection) [2]	EM (emission λmax), Buffer [3] [nm]	EX (excitation λmax), Buffer [3] [nm]	EM (emission λmax), RNA [4] [nm]	EX (excitation λmax), RNA [4] [nm]	Optimum Concentration for live cell imaging [5] [µM]	Fluorescence after RNase digest ([6]; 25 μg/mL DNase-Free RNase)	Fluorescence after DNase digest ([6]; 30 μg/mL DNase)
CN1CCN(c2ccc3[nH]c(-c4ccc5[nH]c(-c6ccc(O)cc6)nc5c4)nc3c2)CC1 [Hoechst 33258]	as toxic in 3T3 cells as F22	–	–	–	–	–	–	–	–	–	–
COc1ccc2c(ccc(/C=C/c3ccc(N(C)C)cc3[N+](=O)[O-])[n+]2C)c1 [Dye F112]	–	620	500	selective nucleolar targeting, high fluorescence intensity, low photobleaching, and low cellular toxicity	516	462	514	465	10	slight stain of the nucleus	bright nucleolar staining remained
